According to ChEMBL document CHEMBL4270545, “Design, synthesis and biological evaluation of 3-piperazinecarboxylate sarsasapogenin derivatives as potential multifunctional anti-Alzheimer agents” (2018):
Calls of active or inactive are those of the source. No cut-off for these calls is given here.

Columns and labels:
PC-12 [1] = test: Neuroprotective activity against H2O2-induced cytotoxicity in rat PC12 cells assessed as cell viability at 10 uM after 24 hrs by MTT assay relative to control; type: functional; details: for viability at 10 µM: PC-12, 24 h, read-out: Activity
Mus musculus = test: Antialzheimer activity in cognitive deficit ICR mouse model assessed as reduction in amyloid beta (1 to 42)-induced spatial memory impairment at 6 mg/kg, ig qd administered for 7 consecutive days by Morris water maze test; type: functional, organism-based
RAW264.7 = test: Antiinflammatory activity in mouse RAW264.7 cells assessed as inhibition of LPS-induced nitric oxide production at 10 uM preincubated for 30 mins followed by LPS addition measured after 20 hrs by Griess assay relative to control; type: functional
PC-12 [2] = test: Neuroprotective activity against amyloid beta (1 to 42)-induced cytotoxicity in rat PC12 cells assessed as cell viability at 10 uM after 48 hrs by MTT assay (reference value: 55.3 to 64.4%); type: functional; details: PC-12, 48 h, read-out: Activity
PC-12 [3] = test: Neuroprotective activity against amyloid beta (1 to 42)-induced cytotoxicity in rat PC12 cells assessed as cell viability at 1 uM after 48 hrs by MTT assay (reference value: 55.3 to 64.4%); type: functional; details: PC-12, 48 h, read-out: Activity
PC-12 [4] = test: Neuroprotective activity against H2O2-induced cytotoxicity in rat PC12 cells assessed as cell viability at 1 mM after 24 hrs by MTT assay relative to control; type: functional; details: PC-12, 24 h, read-out: Activity
PC-12 [5] = test: Neuroprotective activity against amyloid beta (1 to 42)-induced cytotoxicity in rat PC12 cells assessed as cell viability at 30 uM after 48 hrs by MTT assay (reference value: 55.3 to 64.4%); type: functional; details: PC-12, 48 h, read-out: Activity

Structure (SMILES) | viability at 10 µM (PC-12 [1]) | also measured
Cc1ccc(CN2CCN(C(=O)O[C@H]3CC[C@@]4(C)[C@H](CC[C@@H]5[C@@H]4CC[C@]4(C)[C@@H]6[C@H](C[C@@H]54)O[C@]4(CC[C@H](C)CO4)[C@H]6C)C3)CC2)cc1 | 19.2% | –
CCS(=O)(=O)N1CCN(C(=O)O[C@H]2CC[C@@]3(C)[C@H](CC[C@@H]4[C@@H]3CC[C@]3(C)[C@@H]5[C@H](C[C@@H]43)O[C@]3(CC[C@H](C)CO3)[C@H]5C)C2)CC1 | 6.8% | –
COc1cc(CN2CCN(C(=O)O[C@H]3CC[C@@]4(C)[C@H](CC[C@@H]5[C@@H]4CC[C@]4(C)[C@@H]6[C@H](C[C@@H]54)O[C@]4(CC[C@H](C)CO4)[C@H]6C)C3)CC2)ccc1O | 43.9% | Activity (Mus musculus): Active; inhibition at 10 µM (RAW264.7): 24.4%; viability at 10 µM (PC-12 [2]): 91.3%; viability at 1 µM (PC-12 [3]): 55.8%
CC(=O)N[C@@H](CS)C(=O)O [ACETYLCYSTEINE] | – | viability at 1000 µM (PC-12 [4]): 35.3%
C[C@H]1CC[C@@]2(OC1)O[C@H]1C[C@H]3[C@@H]4CC[C@@H]5C[C@@H](OC(=O)N6CCN(S(=O)(=O)c7ccc(F)cc7)CC6)CC[C@]5(C)[C@H]4CC[C@]3(C)[C@H]1[C@@H]2C | 8.5% | –
COc1ccc(C(=O)N2CCN(C(=O)O[C@H]3CC[C@@]4(C)[C@H](CC[C@@H]5[C@@H]4CC[C@]4(C)[C@@H]6[C@H](C[C@@H]54)O[C@]4(CC[C@H](C)CO4)[C@H]6C)C3)CC2)cc1 | 17.7% | –
CCCN1CCN(C(=O)O[C@H]2CC[C@@]3(C)[C@H](CC[C@@H]4[C@@H]3CC[C@]3(C)[C@@H]5[C@H](C[C@@H]43)O[C@]3(CC[C@H](C)CO3)[C@H]5C)C2)CC1 | 18.9% | –
C[C@H]1CC[C@@]2(OC1)O[C@H]1C[C@H]3[C@@H]4CC[C@@H]5C[C@@H](OC(=O)N6CCN(C(=O)c7ccccc7)CC6)CC[C@]5(C)[C@H]4CC[C@]3(C)[C@H]1[C@@H]2C | 17.6% | –
C[C@H]1CC[C@@]2(OC1)O[C@H]1C[C@H]3[C@@H]4CC[C@@H]5C[C@@H](OC(=O)N6CCN(Cc7ccc(O)cc7)CC6)CC[C@]5(C)[C@H]4CC[C@]3(C)[C@H]1[C@@H]2C | 5.8% | –
C[C@H]1CC[C@@]2(OC1)O[C@H]1C[C@H]3[C@@H]4CC[C@@H]5C[C@@H](O)CC[C@]5(C)[C@H]4CC[C@]3(C)[C@H]1[C@@H]2C [SARSASAPOGENIN] | 3.3% | viability at 30 µM (PC-12 [5]): 58.9%; viability at 10 µM (PC-12 [2]): 79.2%
C[C@H]1CC[C@@]2(OC1)O[C@H]1C[C@H]3[C@@H]4CC[C@@H]5C[C@@H](OC(=O)N6CCN(C(=O)c7ccc(N)cc7)CC6)CC[C@]5(C)[C@H]4CC[C@]3(C)[C@H]1[C@@H]2C | – | Activity (PC-12 [1]): inactive
C[C@H]1CC[C@@]2(OC1)O[C@H]1C[C@H]3[C@@H]4CC[C@@H]5C[C@@H](OC(=O)N6CCN(C(=O)c7ccc(Cl)cc7)CC6)CC[C@]5(C)[C@H]4CC[C@]3(C)[C@H]1[C@@H]2C | 20.2% | inhibition (RAW264.7): inactive
Cc1ccc(S(=O)(=O)N2CCN(C(=O)O[C@H]3CC[C@@]4(C)[C@H](CC[C@@H]5[C@@H]4CC[C@]4(C)[C@@H]6[C@H](C[C@@H]54)O[C@]4(CC[C@H](C)CO4)[C@H]6C)C3)CC2)cc1 | 29.5% | inhibition at 10 µM (RAW264.7): 4.8%
C[C@H]1CC[C@@]2(OC1)O[C@H]1C[C@H]3[C@@H]4CC[C@@H]5C[C@@H](OC(=O)N6CCN(Cc7ccc(N(C)C)cc7)CC6)CC[C@]5(C)[C@H]4CC[C@]3(C)[C@H]1[C@@H]2C | 22% | inhibition at 10 µM (RAW264.7): 5.6%
C[C@H]1CC[C@@]2(OC1)O[C@H]1C[C@H]3[C@@H]4CC[C@@H]5C[C@@H](OC(=O)N6CCN(Cc7ccc(F)cc7)CC6)CC[C@]5(C)[C@H]4CC[C@]3(C)[C@H]1[C@@H]2C | 7.2% | –
COc1ccc(CN2CCN(C(=O)O[C@H]3CC[C@@]4(C)[C@H](CC[C@@H]5[C@@H]4CC[C@]4(C)[C@@H]6[C@H](C[C@@H]54)O[C@]4(CC[C@H](C)CO4)[C@H]6C)C3)CC2)cc1 | 33.1% | inhibition at 10 µM (RAW264.7): 1.3%
C[C@H]1CC[C@@]2(OC1)O[C@H]1C[C@H]3[C@@H]4CC[C@@H]5C[C@@H](OC(=O)N6CCNCC6)CC[C@]5(C)[C@H]4CC[C@]3(C)[C@H]1[C@@H]2C | 3.4% | –
C[C@H]1CC[C@@]2(OC1)O[C@H]1C[C@H]3[C@@H]4CC[C@@H]5C[C@@H](OC(=O)N6CCN(S(=O)(=O)c7ccccc7)CC6)CC[C@]5(C)[C@H]4CC[C@]3(C)[C@H]1[C@@H]2C | 20.8% | inhibition (RAW264.7): inactive
C[C@H]1CC[C@@]2(OC1)O[C@H]1C[C@H]3[C@@H]4CC[C@@H]5C[C@@H](OC(=O)N6CCN(Cc7ccc(C#N)cc7)CC6)CC[C@]5(C)[C@H]4CC[C@]3(C)[C@H]1[C@@H]2C | 26.4% | inhibition at 10 µM (RAW264.7): 21.6%
C[C@H]1CC[C@@]2(OC1)O[C@H]1C[C@H]3[C@@H]4CC[C@@H]5C[C@@H](OC(=O)N6CCN(Cc7ccccc7O)CC6)CC[C@]5(C)[C@H]4CC[C@]3(C)[C@H]1[C@@H]2C | 36.6% | inhibition at 10 µM (RAW264.7): 15.2%; viability at 10 µM (PC-12 [2]): 95.3%; viability at 1 µM (PC-12 [3]): 59.3%
C[C@H]1CC[C@@]2(OC1)O[C@H]1C[C@H]3[C@@H]4CC[C@@H]5C[C@@H](OC(=O)N6CCN(Cc7ccccc7)CC6)CC[C@]5(C)[C@H]4CC[C@]3(C)[C@H]1[C@@H]2C | 18.7% | –
